The text below walks through data of ChEMBL document CHEMBL1201862, “PubChem BioAssay data set” (2004).

Active and inactive are the calls of the source.

One experiment concerns INS1. Briefly: beta cell apoptosis inhibitors, cytokine rescue, dose response, luminescence, retest (AID 449756).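 Also: cell death triggered by IL-1 beta plus TNF-alpha plus IFN-gamma mixture; protective hits raise ATP signal compared with cytokine alone wells.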 Type of experiment: functional, cell-based. The conditions noted are these: Rattus norvegicus.
The nature of experiment [1]: growth suppression of PTEN-null colon cells, dose response, cell-based, HCT116 PTEN knockout (AID 1047).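 Also: HCT116 colon tumor cells with PTEN knocked out; cells exposed to compound for 60 hours before readout; potency for loss of cell viability measured by luminescence.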 Type of experiment: functional.
Experiment [2] has as its target T1, Replicative DNA helicase DnaB (Mycobacterium tuberculosis, UniProt P9WMR3).
T1 sequence (P9WMR3 whole entry): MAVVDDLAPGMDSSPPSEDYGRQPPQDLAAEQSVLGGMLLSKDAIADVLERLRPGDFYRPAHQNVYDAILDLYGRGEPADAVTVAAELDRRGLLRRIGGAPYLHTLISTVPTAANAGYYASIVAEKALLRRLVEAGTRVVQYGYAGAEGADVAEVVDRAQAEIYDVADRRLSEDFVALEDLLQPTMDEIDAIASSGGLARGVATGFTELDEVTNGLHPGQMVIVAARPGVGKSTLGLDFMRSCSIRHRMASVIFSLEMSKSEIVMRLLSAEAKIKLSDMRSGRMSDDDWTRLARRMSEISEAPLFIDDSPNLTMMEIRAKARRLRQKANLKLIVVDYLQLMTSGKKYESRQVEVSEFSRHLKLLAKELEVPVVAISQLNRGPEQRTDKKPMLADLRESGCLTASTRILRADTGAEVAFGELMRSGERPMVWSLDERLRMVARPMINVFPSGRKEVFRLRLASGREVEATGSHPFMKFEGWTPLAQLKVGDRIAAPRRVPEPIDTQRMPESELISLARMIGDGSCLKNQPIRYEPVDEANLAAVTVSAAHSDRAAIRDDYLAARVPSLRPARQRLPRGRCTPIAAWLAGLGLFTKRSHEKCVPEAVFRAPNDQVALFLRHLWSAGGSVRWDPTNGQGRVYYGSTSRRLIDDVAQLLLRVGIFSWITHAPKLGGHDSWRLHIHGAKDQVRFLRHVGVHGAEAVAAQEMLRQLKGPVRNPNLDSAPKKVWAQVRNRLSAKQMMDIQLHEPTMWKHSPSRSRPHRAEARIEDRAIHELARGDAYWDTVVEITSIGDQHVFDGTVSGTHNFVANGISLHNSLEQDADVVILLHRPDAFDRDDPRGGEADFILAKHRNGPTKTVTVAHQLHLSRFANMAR
Briefly: DnaB intein splicing inhibitors, dose response, biochemical, cell-free fluorescence (AID 449749). In kind it is functional.

A further experiment concerns Streptococcus. Briefly: Group A Streptococcus viability loss, dose response, counter-screen for streptokinase expression inhibitor project, luminescence, BacTiterGlo (AID 1915).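 Also: potency for reduction of bacterial viability or growth.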 In kind it is functional, organism-based. In general terms: Counterscreens check selectivity or assay interference.
The nature of experiment [3]: growth suppression of beta-catenin-knockout colon cells, dose response, cell-based, HCT116, human colon tumor (AID 1045).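 Also: HCT116 colon tumor cells with beta catenin knocked out; cells exposed to compound for 60 hours.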 In kind it is functional.
Experiment [4] in a line: cytotoxicity in MIN6 insulinoma cells, dose response, cytotoxicity control, cell-based, mouse insulinoma (AID 2122).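 Also: confirmatory high-throughput counterscreen run to flag cytotoxic compounds; mouse MIN-6 beta cells carrying an insulin promoter eGFP reporter.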 Type of experiment: functional.
The subject of experiment [5] is Streptococcus sp. 'group A'. Briefly: growth inhibition of control SK(-) GAS strain, dose response, counter-screen for streptokinase expression inhibitor project, luminescence, kanamycin, BacTiterGlo, confirmation (AID 1900). In kind it is functional, organism-based.
A further experiment addresses Estrogen receptor beta (Homo sapiens, UniProt Q92731).
The target of a further experiment is T2, Protein RecA (Mycobacterium tuberculosis, UniProt P9WHJ3).
T2 sequence (P9WHJ3 whole entry): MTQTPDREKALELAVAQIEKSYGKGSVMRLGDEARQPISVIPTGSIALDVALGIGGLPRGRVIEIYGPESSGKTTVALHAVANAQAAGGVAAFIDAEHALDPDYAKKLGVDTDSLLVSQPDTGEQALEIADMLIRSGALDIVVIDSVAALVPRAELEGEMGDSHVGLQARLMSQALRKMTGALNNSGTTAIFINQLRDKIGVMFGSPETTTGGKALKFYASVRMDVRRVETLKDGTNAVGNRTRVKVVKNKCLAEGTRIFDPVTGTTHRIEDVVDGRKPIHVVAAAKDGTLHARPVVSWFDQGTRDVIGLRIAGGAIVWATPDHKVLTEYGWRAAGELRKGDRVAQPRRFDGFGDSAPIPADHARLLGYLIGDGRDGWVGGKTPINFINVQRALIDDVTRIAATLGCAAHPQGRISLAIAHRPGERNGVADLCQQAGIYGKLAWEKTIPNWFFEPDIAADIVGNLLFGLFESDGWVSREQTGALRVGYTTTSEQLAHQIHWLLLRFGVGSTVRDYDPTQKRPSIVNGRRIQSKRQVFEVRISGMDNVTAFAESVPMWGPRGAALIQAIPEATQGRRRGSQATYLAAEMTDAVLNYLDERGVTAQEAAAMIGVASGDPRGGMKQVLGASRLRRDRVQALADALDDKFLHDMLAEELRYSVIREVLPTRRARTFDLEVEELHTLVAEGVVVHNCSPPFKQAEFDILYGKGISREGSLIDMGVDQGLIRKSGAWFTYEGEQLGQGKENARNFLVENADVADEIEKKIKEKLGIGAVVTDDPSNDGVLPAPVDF
Briefly: Fluorescence Cell-Free Homogeneous Dose Retest to Identify Inhibitors of RecA-Intein Splicing Activity. [Related pubchem assays (depositor defined):AID2097, AID2223, AID489010, AID492950]. In kind it is functional.

Experiment [6] addresses Glucose-6-phosphate 1-dehydrogenase (Homo sapiens, UniProt P11413). Briefly: human G6PD enzyme inhibitors, dose response, selectivity assay for P. falciparum G6PD inhibitor project, biochemical, fluorescence (AID 504792). In kind it is functional.

Sequence of Estrogen receptor beta (Q92731 whole entry): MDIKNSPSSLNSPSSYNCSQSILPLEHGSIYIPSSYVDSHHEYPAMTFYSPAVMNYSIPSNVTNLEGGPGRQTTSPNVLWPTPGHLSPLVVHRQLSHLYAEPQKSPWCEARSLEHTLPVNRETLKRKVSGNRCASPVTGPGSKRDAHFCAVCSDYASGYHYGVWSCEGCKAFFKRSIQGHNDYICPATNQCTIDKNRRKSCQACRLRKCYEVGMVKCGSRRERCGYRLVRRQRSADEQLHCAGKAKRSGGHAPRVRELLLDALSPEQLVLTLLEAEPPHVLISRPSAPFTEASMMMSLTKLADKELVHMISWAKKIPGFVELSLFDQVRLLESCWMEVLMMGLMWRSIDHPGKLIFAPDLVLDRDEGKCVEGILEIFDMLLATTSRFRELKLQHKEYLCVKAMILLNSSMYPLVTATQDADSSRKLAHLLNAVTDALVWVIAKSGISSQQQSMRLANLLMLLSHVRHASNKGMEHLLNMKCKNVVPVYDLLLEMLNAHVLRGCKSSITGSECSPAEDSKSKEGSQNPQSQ
Sequence of Glucose-6-phosphate 1-dehydrogenase (P11413 whole entry): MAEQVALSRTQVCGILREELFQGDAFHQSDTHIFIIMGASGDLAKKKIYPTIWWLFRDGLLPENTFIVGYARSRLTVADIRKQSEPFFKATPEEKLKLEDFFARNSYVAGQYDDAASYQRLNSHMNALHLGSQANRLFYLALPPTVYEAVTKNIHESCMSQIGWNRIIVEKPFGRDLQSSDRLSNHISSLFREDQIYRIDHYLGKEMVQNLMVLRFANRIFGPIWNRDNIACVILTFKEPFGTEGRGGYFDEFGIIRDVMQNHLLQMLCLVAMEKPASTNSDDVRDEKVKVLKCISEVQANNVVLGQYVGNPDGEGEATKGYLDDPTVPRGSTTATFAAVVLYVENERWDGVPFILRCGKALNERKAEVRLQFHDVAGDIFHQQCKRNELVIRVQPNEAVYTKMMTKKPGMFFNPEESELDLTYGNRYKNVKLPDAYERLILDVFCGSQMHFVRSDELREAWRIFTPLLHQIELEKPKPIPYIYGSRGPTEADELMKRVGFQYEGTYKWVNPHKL

By AC50 is commonly meant the concentration at which the activity in the assay is half-maximal. Broadly, the EC50 is the concentration that produces a half-maximal response. By IC50 is commonly meant the concentration needed to halve the response being measured. Take `COc1ccc(C(=O)c2c(C(F)(F)F)oc3c2C(=O)c2ccccc2C3=O)cc1`: the AC50 was 1380 nM (active) in the experiment on INS1 and 164 nM (active) in experiment [2]. For the same compound, the concentration giving a half-maximal response (EC50) in experiment [1] was 2810 nM (active); in the experiment on Streptococcus, 4920 nM (active); in experiment [3] it was 2550 nM (active); in experiment [5], 2260 nM (active); on Protein RecA, 82.5 nM (active). Also, the IC50 was 2390 nM (active) in [4], > 50000 nM (not active) against Estrogen receptor beta and > 80000 nM (inactive) in experiment [6].
